Data from patent US12174461B2, “Sustained release of oleic acid from contact lenses” (CooperVision International Limited, priority 2022, dated 2024).

Experiments:
[1] = biological target: T1, recombinant human PLA2G2A (sPLA2-IIA) (Homo sapiens, UniProt P14555); test: sPLA2 digestion assay: oleic acid release from stenfilcon A lenses loaded with phospholipid, in ATF with and without sPLA2 (LCMS); type: biochemical; conditions: 35±2° C., 4 hours; for Oleic acid peak area in ATF (without sPLA2): 4 mm piece of phospholipid-loaded stenfilcon A lens in 100 μL ATF; for Ratio of OA peak area in ATF with and without sPLA2: stenfilcon A lens pieces, 50 ppm sPLA2
T1 construct: purchased Creative BioMart PLA2G2A-669H
T1 sequence (P14555 21-144): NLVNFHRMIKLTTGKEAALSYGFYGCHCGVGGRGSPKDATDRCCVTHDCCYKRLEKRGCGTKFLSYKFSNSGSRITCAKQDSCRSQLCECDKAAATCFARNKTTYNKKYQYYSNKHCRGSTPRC
Description: The phospholipids shown in Table 1 were obtain from Avanti Polar Lipids. 3 mg/ml loading solutions of the phospholipids shown in Table 1 were prepared by adding 2.4 mL ethanol to 9 mg of phospholipid, sonicating (up to 15 minutes) then adding 0.6 mL DI water and sonicating again (up to 15 minutes) to dissolve the phospholipid.
Hydrated contact lenses made from stenfilcon A were washed three times in 3 mL purified water for 30 minutes each time. Each washed lens was placed in 3 mL of a phospholipid loading solution and incubated at room temperature with gentle shaking at 75 rpm for 3 hours. The loaded lenses were then rinsed and hydrated in several exchanges of DI water. The lenses were packaged in a buffered saline contact lens packaging solution and autoclaved.
An artificial tear fluid (ATF) was prepared by adding the first three ingredients listed in Table 2 to a clean class vial and then adding 30 mL of the fourth ingredient.
After autoclave each lens was removed from its package and place in a 6 mL glass vial containing 5 mL of the ATF at room temperature on a shaker at 125 rpm overnight to elute any free oleic acid that may be present in the lens.
Each lens was rinsed in a 6 ml glass vial containing a fresh aliquot of 5 mL ATF for 30 minutes prior to running the digestion assay.
A 50 ppm solution of sPLA2 was prepared in ATF by adding 200 μl ATF to a tube containing 10 μg recombinant human PLA2G2A (Creative BioMart, Cat. No. PLA2G2A-669H). The solution is referred to as ATF+sPLA2. Two 4 mm pieces were cut from each lens. One piece of each lens was placed in a tube with 100 μL ATF and the other piece was placed in a tube containing 100 μL ATF+sPLA2. The tubes were incubated at 35±2° C. for 4 hours with no shaking.
50 μl of the release media from each lens at T=4 hr was transferred to HPLC vials and 500 μl isopropanol (IPA) was added and mixed well. T=0 hr HPLC vials were also prepared (50 μl ATF+500 μl IPA). All vials were sonicated for 15 minutes and centrifuged. The supernatant was removed for LCMS injection.
The supernatants were injected on an LCMS instrument equipped with an ACQUITY UPLC BEH C18 […], 2.1 mm×15 cm column and running a mobile phase gradient from 65% A to 90% B at a flow rate of 0.35 mL/min with A=40% acetonitrile in water with 10 mM ammonium acetate and 0.2% (v/v) ammonium hydroxide, and B=10% acetonitrile in IPA with 10 mM ammonium acetate and 0.2% (v/v) ammonium hydroxide. The mass spec detector is run at negative electrospray mode. The peaks for oleic acid (OA) in the supernatants were measured (m/z trace=281.24). The ratio of OA peak area in ATF with and without sPLA2 was calculated.

[2] = Amount of DOPG loaded in stenfilcon A lens, by IPA extraction and LCMS; type: physicochemical; conditions: about 90 minutes
Description: 1,2-Dioleoyl-sn-glycero-3-phospho-rac-(1-glycerol) sodium salt (DOPG) from Sigma-Aldrich was dissolved into a 50% by volume ethanol (EtOH) 50% by volume deionized water solution and sonicated until the DOPG was fully dissolved to provide DOPG loading solutions ranging in concentration from 1 mg/ml to 10 mg/ml.
Silicone hydrogel contact lenses were prepared by curing the formulation for stenfilcon A in polypropylene contact lens molds. The cured stenfilcon A was removed from the molds, and each lens was extracted in EtOH to remove unreacted monomer. The lenses were then placed in the DOPG loading solutions for about 90 minutes and then hydrated in several exchanges of DI water. The lenses were packaged in plastic blisters with about 1.2 ml of a packaging solution comprising phosphate buffered saline (PBS) and autoclaved.
The amount of DOPG in each lens was determined by extracting the lens with isopropanol (IPA) and measuring DOPG in the extract by LCMS. Briefly, each lens was removed from its blister pack, lightly blotted to remove excess packaging solution, and placed in a 20 mL glass vial containing 10 mL 100% IPA. The vials were placed on a bench top shaker at 300 rpm overnight (˜16 hours) at room temperature. For stenfilcon A, a single […] extraction step is sufficient to extract substantially all the DOPG from the lense. Silicone hydrogel lens materials that are more hydrophobic may require a second overnight extraction in order to extract all the DOPG, in which case the IPA from the first extraction step is removed and replaced with 3 mL fresh IPA and shaken overnight at 300 rpm at room temperature. The amount of DOPG in the IPA extract from each lens is determined by LCMS compared to a DOPG standard solution.

[3] = test system: sPLA2 enzymes found in human tears; test: Susceptibility of phospholipid in a silicone hydrogel contact lens body to digestion by tear sPLA2 enzymes; type: biochemical; conditions: phospholipid present in a silicone hydrogel contact lens body
Description: To achieve these and other advantages, and in accordance with the purposes of the present invention, as embodied and broadly described herein, the present invention, in part relates to a hydrogel contact lens comprising a polymeric lens body loaded with 2-oleoyl phospholipid. The 2-oleoyl phospholipid is advantageously susceptible to digestion by secretory phospholipase 2-acylhydrolase (sPLA2) enzymes found in human tears, especially group IIA secretory phospholipase 2-acylhydrolase (sPLA2-IIA). The 2-oleoyl phospholipid present in the contact lens body is advantageously susceptible to digestion by sPLA2 enzymes found in human tears, especially sPLA2-IIA when the 2-oleoyl phospholipid is present in the polymeric lens body of a silicone hydrogel contact lens, such as a stenfilcon A contact lens. […] For the avoidance of doubt, while the determination of whether a 2-oleoyl phospholipid is susceptible to digestion by sPLA2 enzymes may be carried out by loading the 2-oleoyl phospholipid to a stenfilcon A lens, the contact lens of the invention, including contact lenses comprising 2-oleoyl phospholipid that have been determined to be susceptible to digestion by sPLA2 enzymes, need not be stenfilcon A lenses and may be silicone hydrogel lenses of any formulation. […]

| SMILES | Oleic acid peak area in ATF (without sPLA2) ([1]; LCMS m/z 281.24) | Ratio of OA peak area in ATF with and without sPLA2 [1] | other results |
| --- | --- | --- | --- |
| CCCCCCCC/C=C\CCCCCCCC(=O)OC[C@H](COP(=O)(O)OCC(O)CO)OC(=O)CCCCCCC/C=C\CCCCCCCC (mixture of isomers) [DOPG, 1,2-dioleoyl-sn-glycero-3-phospho-(1′-rac-glycerol)] | 36 | 279 | Oleic acid peak area in ATF + sPLA2 ([1]; 4 mm piece of phospholipid-loaded stenfilcon A lens in 100 μL ATF + 50 ppm recombinant human PLA2G2A, LCMS m/z 281.24): 9958; Average amount of DOPG/lens ([2]; DOPG loading concentration 1.0 mg/mL in 50% EtOH/water): 240 µg; Average amount of DOPG/lens ([2]; DOPG loading concentration 2.5 mg/mL in 50% EtOH/water): 495 µg; Average amount of DOPG/lens ([2]; DOPG loading concentration 5.0 mg/mL in 50% EtOH/water): 760 µg; Average amount of DOPG/lens ([2]; DOPG loading concentration 7.5 mg/ml in 50% EtOH/water): 895 µg; Average amount of DOPG/lens ([2]; DOPG loading concentration 10.0 mg/ml in 50% EtOH/water): 975 µg |
| CCCCCCCCCCCCCC(=O)OC[C@H](COP(=O)([O-])OCC[N+](C)(C)C)OC(=O)CCCCCCCCCCCCC [DMPC, 1,2-dimyristoyl-sn-glycero-3-phosphocholine] | – | – | Susceptibility to digestion by sPLA2 enzymes found in human tears [3]: not be susceptible to digestion by sPLA2 enzymes |
| CCCCCCCC/C=C\CCCCCCCC(=O)OC[C@H](COP(=O)([O-])OCC[N+](C)(C)C)OC(=O)CCCCCCC/C=C\CCCCCCCC [DOPC, 1,2-dioleoyl-sn-glycero-3-phosphocholine, reference compound] | 102 | 1.2 | – |
| CCCCCCCC/C=C\CCCCCCCC(=O)OC[C@H](COP(=O)(O)OCCN)OC(=O)CCCCCCC/C=C\CCCCCCCC [DOPE, 1,2-dioleoyl-sn-glycero-3-phosphoethanolamine] | 463 | 4.6 | – |
| CCCCCCCC/C=C\CCCCCCCC(=O)OC[C@H](COP(=O)(O)OC[C@H](N)C(=O)O)OC(=O)CCCCCCC/C=C\CCCCCCCC [DOPS, 1,2-dioleoyl-sn-glycero-3-phospho-L-serine] | 88 | – | – |
